Usually IC50 stands for the concentration that gives 50% inhibition.

The results in this text go back to ChEMBL document CHEMBL1155939, “Baicalin, a prodrug able to reach the CNS, is a prolyl oligopeptidase inhibitor” (Bioorg Med Chem, 2008).

The assay concerns the target T1, Prolyl endopeptidase (Homo sapiens, UniProt P48147).
T1 sequence (P48147 whole entry): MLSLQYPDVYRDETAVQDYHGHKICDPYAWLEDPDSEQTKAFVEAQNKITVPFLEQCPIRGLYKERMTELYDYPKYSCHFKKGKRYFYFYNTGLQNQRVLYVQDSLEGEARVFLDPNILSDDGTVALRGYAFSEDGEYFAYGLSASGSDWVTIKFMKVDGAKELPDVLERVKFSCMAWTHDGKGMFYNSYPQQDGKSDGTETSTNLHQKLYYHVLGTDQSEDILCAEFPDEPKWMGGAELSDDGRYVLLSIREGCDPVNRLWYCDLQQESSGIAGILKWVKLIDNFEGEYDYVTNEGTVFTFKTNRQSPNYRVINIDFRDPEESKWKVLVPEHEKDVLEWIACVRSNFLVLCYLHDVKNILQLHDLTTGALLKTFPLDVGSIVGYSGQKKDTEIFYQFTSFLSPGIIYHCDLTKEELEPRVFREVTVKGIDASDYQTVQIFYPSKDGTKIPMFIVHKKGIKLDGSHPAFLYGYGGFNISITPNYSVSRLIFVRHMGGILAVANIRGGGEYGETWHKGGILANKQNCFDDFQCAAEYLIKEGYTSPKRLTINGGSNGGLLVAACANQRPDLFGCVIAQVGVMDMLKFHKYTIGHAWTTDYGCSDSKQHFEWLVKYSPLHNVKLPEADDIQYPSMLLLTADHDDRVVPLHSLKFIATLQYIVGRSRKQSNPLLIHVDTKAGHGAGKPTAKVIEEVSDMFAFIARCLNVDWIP
Put plainly: Inhibition of human brain prolyl oligopeptidase expressed in Escherichia coli.
`O=c1c(O)c(-c2ccccc2)oc2cc(O)ccc12` [3,7-DIHYDROXYFLAVONE] had an IC50 greater than 200 µM. Regarding `O=c1c(O)c(-c2ccc(O)cc2)oc2cc(O)cc(O)c12` [KAEMPFEROL], the half-inhibitory concentration (IC50) is greater than 200 µM. `O=c1c(O)c(-c2ccc(O)c(O)c2)oc2cc(O)cc(O)c12` [QUERCETIN] yielded a concentration for half-maximal inhibition (IC50) of 13 µM. The figure for `C[C@@H]1O[C@@H](OC[C@H]2O[C@@H](Oc3c(-c4ccc(O)c(O)c4)oc4cc(O)cc(O)c4c3=O)[C@H](O)[C@@H](O)[C@@H]2O)[C@H](O)[C@H](O)[C@H]1O` [RUTIN] is greater than 200 µM.
